The term inhibition denotes the change of the read-out against control, counted positive when it falls.

In US7977371B2, “Pyrrole derivative having ureido group and aminocarbonyl group as substituents” (Santen Pharmaceutical Co., Ltd., priority 2007, dated 2011) one finds response vs control in vivo and inhibition data, which are given here for 1 compound.

Structures are written as SMILES.

Test [1] concerns choroidal neovascularization induced by krypton laser irradiation. The test is described as follows: Evaluation test for inhibitory effect on choroidal neovascularization (rat model induced by krypton laser irradiation). Format: in vivo, Brown Norway rat. Conditions: po, 168 h, 30 mg/kg/day orally once a day for 7 days (day 0 to day 6), fluorescein fundus angiography on day 7, versus vehicle administration group, average of 5 to 8 eyes of 3 to 4 rats, read-out: Ratio of incidence of neovascularization (% of control). The text has this: 2. Evaluation Test for Inhibitory Effect on Choroidal Neovascularization
As one of the methods widely used for evaluating an inhibitory effect on choroidal neovascularization, a rat model of choroidal neovascularization induced by krypton laser irradiation has been reported in Graefe's Arch. Cli. Exp. Ophthalmol., 235, 313-319 (1997). According to the method described in this document, a ratio of incidence of choroidal neovascularization of a present compound administration group to that of a vehicle administration group was calculated using the rat model of choroidal neovascularization, and an inhibitory effect of the present compound on choroidal neovascularization was evaluated using the calculated value as an index. Specific test methods will be described below.
(Preparation of Administration Liquid of Test Compound)
A test compound was suspended in a 1% aqueous methyl cellulose solution, whereby a 6 mg/mL test compound suspension was prepared.
(Preparation of Rat Model of Choroidal Neovascularization Induced by Krypton Laser)
1) To a Brown Norway rat (male, 7 to 8 weeks of age), a mixed solution of a 5% ketamine hydrochloride injection solution and a 2% xylazine hydrochloride injection solution (7:1) was intramuscularly administered at a dose of 1 mL/kg to effect systemic anesthesia.
2) After a 0.5% tropicamide-0.5% phenylephrine hydrochloride eye drop was instilled into the eyes to cause mydriasis, photocoagulation was performed using a krypton laser photocoagulation apparatus (MC-7000, manufactured by NIDEK Co., Ltd.). The krypton laser irradiation was performed at eight spots per eye sparsely by focusing on the retinal deep layer avoiding large retinal vessels in a posterior section of ocular fundus. The photocoagulation conditions were set such that the spot size was 100 μm, the output was 100 mW and the coagulation time was 0.1 sec.
3) After the photocoagulation, the ocular fundus photography was performed (PRO III, manufactured by Kowa Company, Ltd.) to confirm the photocoagulation (krypton laser irradiation) sites.
(Administration Method of Test Compound)
1) The test compound suspension (30 mg/kg/day) was orally administered once a day for 7 consecutive days from the day of krypton laser irradiation (day 0) until day 6.
2) A 1% aqueous methyl cellulose solution was administered in the same manner as in 1) in place of the test compound suspension, and the obtained result was designated as the vehicle administration group.
1). On day 7 after the photocoagulation, 0.1 mL of a 10% aqueous fluorescein solution was injected into the tail vein, and fluorescein fundus angiography was performed (PRO III, manufactured by Kowa Company, Ltd.).
2) In the fluorescein fundus angiography, a spot where fluorescence leakage was not observed was determined to be negative and a spot where fluorescence leakage was observed was determined to be positive. With respect to photocoagulation sites where a little fluorescence leakage was observed, in the case where there were two such photocoagulation sites, it was determined to be positive.
(Calculation Formula of Incidence of Neovascularization)
An incidence (%) of neovascularization of each administration group and a ratio of incidence of neovascularization of the test compound administration group to that of the vehicle administration group were calculated from the following formulae, respectively. Incidence of Neovascularization of Each Administration Group (%)=[(Number of Positive Photocoagulation. Sites)/(Number of Total Photocoagulation Sites)]×100 Ratio of Incidence of Neovascularization of Test Compound Administration Group to that of Vehicle Administration Group (% of Control)=[(Incidence of Neovascularization of Test Compound Administration Group)/(Incidence of Neovascularization of Vehicle Administration Group)]×100 (Evaluation Results)

Test [2] relates to TNF-α-induced IL-6 production in normal human skin fibroblast-derived CCD-1059Sk cells. The test is described as follows: Test for measurement of inhibitory activity against TNF-α-induced IL-6 production. Conditions: Homo sapiens, CCD-1059Sk, 16 h, test compound at 10 μM, TNF-α stimulation 16 hours, inhibition ratio of 100% or more is indicated as 100%. Format: cell-based.

In the case of `NC(=O)Nc1[nH]c(-c2cc(F)ccc2OCCO)cc1C(N)=O` [Compound 4-54, 2-Aminocarbonylamino-5-[5-fluoro-2-(2-hydroxyethyloxy)phenyl]pyrrole-3-carboxamide], the response vs control in vivo at 30 mg/kg in test [1] stood at 86%. The inhibition at 10 µM in test [2] came to 96%.
